Data published in paper PMC3818998 (Microbial Biotechnology, 2011).
Where two headings read alike, the source gives them in different places.

T1: GalR (Bifidobacterium breve UCC2003, UniProt F9Y1U7 1-351)
T1 sequence: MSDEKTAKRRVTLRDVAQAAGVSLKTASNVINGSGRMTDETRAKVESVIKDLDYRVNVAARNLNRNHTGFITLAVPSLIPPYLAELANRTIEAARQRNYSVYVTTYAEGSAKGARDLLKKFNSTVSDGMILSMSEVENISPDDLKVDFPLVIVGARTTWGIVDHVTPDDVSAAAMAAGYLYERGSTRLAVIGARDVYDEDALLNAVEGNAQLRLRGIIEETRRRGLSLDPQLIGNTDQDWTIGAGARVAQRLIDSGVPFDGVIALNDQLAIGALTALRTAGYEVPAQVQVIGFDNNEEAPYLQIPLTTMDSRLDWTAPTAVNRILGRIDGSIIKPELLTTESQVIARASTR


How the values were obtained:
GalG = GalG (Bifidobacterium breve, UniProt F9Y1U6); experiment: HPTLC of hydrolysis products; type: biochemical
GalR = molecular target: T1, GalR; experiment: EMSA

Molecule	binding result (GalR)	also measured
OC[C@H]1O[C@@H](O[C@@H]2[C@H](O)[C@@H](O)C(O)O[C@@H]2CO)[C@H](O)[C@@H](O)[C@H]1O (stereo partly shown) [galactobiose]	–	HPTLC of hydrolysis products (GalG): The hydrolysis products of galactobiose and lactose following incubation with GalG
OC[C@H]1O[C@@H](O[C@@H]2[C@H](O)[C@@H](O)[C@H](O[C@@H]3[C@H](O)[C@@H](O)C(O)O[C@@H]3CO)O[C@@H]2CO)[C@H](O)[C@@H](O)[C@H]1O (stereo partly shown) [galactotriose]	–	HPTLC of hydrolysis products (GalG; galactotriose generated in situ from potato galactan by GalA or GalAT): Upon addition of GalG to the reaction mix the galactotriose is further hydrolysed
galCIR2 (dsDNA) DNA 1: TGACAAATTGGTACACAGGTGTATCATCTTAGGTA DNA 2: TACCTAAGATGATACACCTGTGTACCAATTTGTCA	binds	–
galCIR1 (dsDNA) DNA 1: TTAGGTATTGGTACACGGGTGTACCAAAGAAAACA DNA 2: TGTTTTCTTTGGTACACCCGTGTACCAATACCTAA	binds	–
